Results published in patent publication US4699928A, “Fluoroallylamine derivatives” (Merrell Dow Pharmaceuticals Inc., priority 1986, dated 1987).
pIC50: −log10 of the molar value.

Experiments:
[1] = tested on: MAO; assay: Inhibition of MAO in vitro, partially purified rat brain mitochondria, 14C p-tyramine substrate; type: biochemical; conditions: tested as hydrochloride salt
Description: Inhibition of MAO--In vitro testing
(A) The ability of a compound of Formula I to inhibit MAO can be determined in vitro by the method of A. Christmas et al., Br. J. Pharmacol., 45, 490 (1972) in partially purified mitochondria from rat brain using ^14 C p-tyramine as the substrate. The MAO inhibitory activity of a compound is expressed as the "IC50 " value, which is the molar concentration required to produce 50% inhibition of the enzyme.

[2] = tested on: MAO-B versus MAO-A; assay: Selectivity of inhibition of MAO-B versus MAO-A in vitro (14C phenethylamine / 14C 5-hydroxytryptamine); type: biochemical; conditions: rat, brain mitochondria
Description: Mitochondria are prepared from rat brain by homogenation in phosphate buffer (0.1 M, pH 7.2) followed by differential centrifugation. The mitochondria are suspended in the same buffer, the test compound is added at the desired concentration, and the system is incubated. At different time intervals, aliquots are taken and MAO activity is measured using ^14 C p-tyramine (a mixed substrate) as the substrate (See A. Christmas et al., supra).
(C) The selectivity of a compound of Formula I with respect to inhibition of MAO-A and MAO-B can be determined by repeating the procedure of Part B and measuring the MAO activity using ^14 C 5-hydroxytryptamine (a preferred substrate for MAO-A) and ^14 C phenethylamine (a preferred substrate for MAO-B) as the substrate.

[3] = tested on: heart rate response to p-tyramine; assay: Cheese effect: potentiation of response to intravenous p-tyramine, pithed rats; type: in vivo, male Sprague-Dawley rats; conditions: for Potentiation of heart rate response to p-tyramine: 18 h, p-tyramine i.v.
Description: (§1) The following test procedures can be employed to assess the potential of a compound of Formula I for producing the "cheese effect": […]
(§2) Eighteen hours later the animals are anaesthetized with pentobarbitone (60 mg/kg i.p.), in some instances pithed, and in all cases set up for recording heart rate and blood pressure by standard techniques.

[4] = tested on: heart rate response to p-tyramine; assay: Cheese effect: potentiation of response to intraduodenal p-tyramine, anaesthetized rats; type: in vivo, male Sprague-Dawley rats; conditions: 18 h, p-tyramine i.d.
Description: as §1, §2

Q: Which results are given for `NC/C(=C/F)COc1ccc(Cl)cc1Cl` [(z)-2-(2',4'-dichlorophenoxy)methyl-3-fluoroallylamine]?
A: pIC50 [1]: 6.82; Ratio B:A (inhibitory activity against MAO-B versus MAO-A) [2]: 200; Potentiation of heart rate response to p-tyramine ([3]; 10 mg/kg by mouth, in words): none; cardiovascular responses to tyramine injected intravenously, in words ([3]; 10 mg/kg p.o. 18 h prior to testing): affected to only a small extent; Potentiation of heart rate response to p-tyramine ([3]; 25 mg/kg by mouth): 2.8 fold; potentiation of tyramine ([3]; 25 mg/kg, two experiments): 2-3 fold; Potentiation of heart rate response to p-tyramine ([4]; 5 mg/kg by mouth): 1.5 fold; Potentiation of heart rate response to p-tyramine ([4]; 10 mg/kg by mouth): 2.4 fold; Potentiation of heart rate response to p-tyramine ([4]; 25 mg/kg by mouth): 2.0 fold
